According to ChEMBL document CHEMBL1152560, “Substituted 2-arylbenzothiazoles as kinase inhibitors: hit-to-lead optimization” (Bioorg Med Chem, 2009):

Key:
[1] = target: T1, Mitogen-activated protein kinase 12 (Homo sapiens) (UniProt P53778); assay: Residual activity of p38-gamma at 1 uM by microplate scintillation counting
T1 sequence (whole entry): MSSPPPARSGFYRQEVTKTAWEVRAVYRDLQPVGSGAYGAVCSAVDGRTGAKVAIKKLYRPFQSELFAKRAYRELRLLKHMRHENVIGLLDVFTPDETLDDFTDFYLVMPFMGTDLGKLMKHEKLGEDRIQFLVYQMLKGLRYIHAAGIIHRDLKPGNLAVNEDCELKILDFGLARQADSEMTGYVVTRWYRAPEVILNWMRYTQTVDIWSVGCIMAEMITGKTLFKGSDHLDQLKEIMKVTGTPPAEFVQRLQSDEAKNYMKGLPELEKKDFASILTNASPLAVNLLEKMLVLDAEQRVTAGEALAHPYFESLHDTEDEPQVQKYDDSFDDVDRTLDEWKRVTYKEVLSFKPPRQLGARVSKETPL

[2] = target: SRSF protein kinase 1 (Homo sapiens) (UniProt Q96SB4); assay: Residual activity of SRPK1 at 10 uM by microplate scintillation counting
Chain of SRSF protein kinase 1 (Homo sapiens) (Q96SB4 whole entry): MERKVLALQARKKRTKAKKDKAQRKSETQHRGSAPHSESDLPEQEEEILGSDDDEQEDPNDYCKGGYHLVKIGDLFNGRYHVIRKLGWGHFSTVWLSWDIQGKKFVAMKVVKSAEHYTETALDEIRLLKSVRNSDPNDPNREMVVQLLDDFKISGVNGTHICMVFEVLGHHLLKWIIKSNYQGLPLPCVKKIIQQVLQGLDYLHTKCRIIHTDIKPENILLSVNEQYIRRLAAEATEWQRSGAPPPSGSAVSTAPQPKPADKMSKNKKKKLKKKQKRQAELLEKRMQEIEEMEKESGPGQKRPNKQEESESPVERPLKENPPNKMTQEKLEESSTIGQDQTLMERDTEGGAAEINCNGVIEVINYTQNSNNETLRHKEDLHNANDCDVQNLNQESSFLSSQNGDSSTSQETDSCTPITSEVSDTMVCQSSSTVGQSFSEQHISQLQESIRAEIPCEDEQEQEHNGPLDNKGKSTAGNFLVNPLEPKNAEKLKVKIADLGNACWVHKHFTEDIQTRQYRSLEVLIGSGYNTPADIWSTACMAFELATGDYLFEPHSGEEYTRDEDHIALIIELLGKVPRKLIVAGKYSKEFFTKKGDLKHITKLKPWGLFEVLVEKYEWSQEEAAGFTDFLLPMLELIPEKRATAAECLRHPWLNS

[3] = target: Non-receptor tyrosine-protein kinase TYK2 (Homo sapiens) (UniProt P29597); assay: Residual activity of TYK2 at 1 uM by microplate scintillation counting
Chain of Non-receptor tyrosine-protein kinase TYK2 (Homo sapiens) (P29597 whole entry): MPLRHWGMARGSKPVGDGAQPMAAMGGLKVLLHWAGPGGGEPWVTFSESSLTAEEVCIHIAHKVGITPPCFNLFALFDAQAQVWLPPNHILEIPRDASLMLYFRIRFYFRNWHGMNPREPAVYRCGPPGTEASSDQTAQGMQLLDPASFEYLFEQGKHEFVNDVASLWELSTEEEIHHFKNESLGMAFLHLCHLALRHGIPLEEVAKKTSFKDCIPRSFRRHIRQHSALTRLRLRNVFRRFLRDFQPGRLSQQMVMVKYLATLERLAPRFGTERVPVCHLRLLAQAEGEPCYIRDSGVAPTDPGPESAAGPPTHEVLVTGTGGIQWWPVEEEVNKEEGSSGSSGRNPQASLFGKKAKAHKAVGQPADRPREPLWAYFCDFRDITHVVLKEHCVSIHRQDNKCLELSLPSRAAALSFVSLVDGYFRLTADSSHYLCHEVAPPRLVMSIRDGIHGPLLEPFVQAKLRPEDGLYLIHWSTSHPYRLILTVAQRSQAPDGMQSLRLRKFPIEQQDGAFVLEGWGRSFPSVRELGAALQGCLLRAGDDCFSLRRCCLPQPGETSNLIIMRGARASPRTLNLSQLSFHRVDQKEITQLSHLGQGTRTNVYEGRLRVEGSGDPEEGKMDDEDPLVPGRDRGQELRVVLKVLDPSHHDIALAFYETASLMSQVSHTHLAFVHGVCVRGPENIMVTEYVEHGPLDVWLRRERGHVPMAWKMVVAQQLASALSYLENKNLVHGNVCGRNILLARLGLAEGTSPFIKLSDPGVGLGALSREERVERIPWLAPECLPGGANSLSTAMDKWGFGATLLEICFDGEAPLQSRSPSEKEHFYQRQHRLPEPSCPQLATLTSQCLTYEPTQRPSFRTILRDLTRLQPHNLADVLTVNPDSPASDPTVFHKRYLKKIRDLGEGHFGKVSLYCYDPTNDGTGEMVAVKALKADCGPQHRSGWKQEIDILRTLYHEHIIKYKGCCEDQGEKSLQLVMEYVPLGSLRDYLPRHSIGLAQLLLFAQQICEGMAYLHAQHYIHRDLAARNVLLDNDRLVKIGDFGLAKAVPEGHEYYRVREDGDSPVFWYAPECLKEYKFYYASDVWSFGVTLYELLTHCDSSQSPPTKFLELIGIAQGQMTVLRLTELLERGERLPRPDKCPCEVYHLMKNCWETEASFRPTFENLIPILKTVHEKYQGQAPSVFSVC

[4] = target: T2, Cytoplasmic tyrosine-protein kinase BMX (Homo sapiens) (UniProt P51813); assay: Residual activity of BMX at 0.1 uM by microplate scintillation counting
T2 sequence (whole entry): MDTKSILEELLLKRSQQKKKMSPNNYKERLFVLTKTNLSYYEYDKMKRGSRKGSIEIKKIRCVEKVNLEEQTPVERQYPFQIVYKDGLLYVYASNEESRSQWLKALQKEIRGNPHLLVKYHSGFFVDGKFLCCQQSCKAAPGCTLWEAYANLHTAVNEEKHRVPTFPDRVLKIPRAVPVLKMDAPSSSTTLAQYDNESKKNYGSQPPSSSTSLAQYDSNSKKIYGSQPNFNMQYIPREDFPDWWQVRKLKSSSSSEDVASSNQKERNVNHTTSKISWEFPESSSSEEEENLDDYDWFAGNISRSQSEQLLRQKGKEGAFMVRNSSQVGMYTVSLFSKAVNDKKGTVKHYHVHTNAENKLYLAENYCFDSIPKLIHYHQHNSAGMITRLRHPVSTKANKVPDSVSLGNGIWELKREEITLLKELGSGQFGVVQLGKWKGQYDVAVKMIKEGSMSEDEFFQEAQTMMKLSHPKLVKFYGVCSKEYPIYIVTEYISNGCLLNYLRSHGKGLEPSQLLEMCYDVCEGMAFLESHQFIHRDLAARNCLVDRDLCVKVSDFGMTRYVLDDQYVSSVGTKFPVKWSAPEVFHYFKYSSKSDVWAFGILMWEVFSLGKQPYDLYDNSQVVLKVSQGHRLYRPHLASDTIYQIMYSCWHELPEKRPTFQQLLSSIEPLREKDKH

[5] = target: T3, Ephrin type-B receptor 3 (Homo sapiens) (UniProt P54753); assay: Residual activity of EPHB3 at 0.1 uM by microplate scintillation counting
T3 sequence (whole entry): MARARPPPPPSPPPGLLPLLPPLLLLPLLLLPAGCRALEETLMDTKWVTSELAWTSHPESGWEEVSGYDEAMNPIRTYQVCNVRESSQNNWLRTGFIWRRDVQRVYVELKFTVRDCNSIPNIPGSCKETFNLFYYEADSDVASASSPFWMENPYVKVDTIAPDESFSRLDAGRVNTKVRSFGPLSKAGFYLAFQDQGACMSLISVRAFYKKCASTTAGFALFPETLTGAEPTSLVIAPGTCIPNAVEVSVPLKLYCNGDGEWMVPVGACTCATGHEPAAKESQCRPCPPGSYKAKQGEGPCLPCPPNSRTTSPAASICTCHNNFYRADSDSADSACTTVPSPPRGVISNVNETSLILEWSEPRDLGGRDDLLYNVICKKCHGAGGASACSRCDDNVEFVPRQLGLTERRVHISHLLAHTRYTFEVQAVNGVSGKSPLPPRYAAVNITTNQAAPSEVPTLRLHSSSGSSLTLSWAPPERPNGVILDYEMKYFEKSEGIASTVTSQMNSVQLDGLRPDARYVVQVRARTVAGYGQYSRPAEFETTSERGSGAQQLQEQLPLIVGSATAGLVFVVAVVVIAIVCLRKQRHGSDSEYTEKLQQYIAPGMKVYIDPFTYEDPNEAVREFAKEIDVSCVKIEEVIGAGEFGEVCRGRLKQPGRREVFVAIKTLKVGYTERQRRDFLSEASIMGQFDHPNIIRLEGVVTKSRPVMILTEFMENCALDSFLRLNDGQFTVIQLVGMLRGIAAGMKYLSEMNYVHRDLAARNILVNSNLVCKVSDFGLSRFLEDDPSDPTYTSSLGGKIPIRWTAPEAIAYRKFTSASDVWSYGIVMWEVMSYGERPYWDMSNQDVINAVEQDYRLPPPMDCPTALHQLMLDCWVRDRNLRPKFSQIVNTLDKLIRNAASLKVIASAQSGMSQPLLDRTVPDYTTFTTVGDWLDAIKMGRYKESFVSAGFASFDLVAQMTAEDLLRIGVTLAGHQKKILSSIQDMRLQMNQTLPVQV

[6] = target: T4, Serine/threonine-protein kinase Chk1 (Homo sapiens) (UniProt O14757); assay: Residual activity of CHK1 at 0.1 uM by microplate scintillation counting
T4 sequence (whole entry): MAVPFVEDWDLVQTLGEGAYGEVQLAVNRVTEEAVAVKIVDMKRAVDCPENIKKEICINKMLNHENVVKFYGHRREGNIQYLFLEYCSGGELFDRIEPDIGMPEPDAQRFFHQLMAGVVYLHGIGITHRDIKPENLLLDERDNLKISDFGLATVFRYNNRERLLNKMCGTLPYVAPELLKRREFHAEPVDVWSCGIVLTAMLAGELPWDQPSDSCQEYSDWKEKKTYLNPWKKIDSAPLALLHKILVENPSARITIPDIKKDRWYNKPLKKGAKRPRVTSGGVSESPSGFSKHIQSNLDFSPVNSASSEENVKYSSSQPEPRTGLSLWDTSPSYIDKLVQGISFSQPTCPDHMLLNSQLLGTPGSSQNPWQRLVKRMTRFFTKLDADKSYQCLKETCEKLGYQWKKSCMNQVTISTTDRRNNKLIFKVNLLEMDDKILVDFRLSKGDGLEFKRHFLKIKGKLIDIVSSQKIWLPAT

[7] = target: Cyclin-dependent kinase 1/cyclin B1 (Homo sapiens) (UniProt P06493+P14635); assay: Residual activity of CDK1/CyclinB1 at 10 uM by microplate scintillation counting; assay type: protein-complex assay
Chain of Cyclin-dependent kinase 1/cyclin B1 (Homo sapiens) (P06493 whole entry, looked up): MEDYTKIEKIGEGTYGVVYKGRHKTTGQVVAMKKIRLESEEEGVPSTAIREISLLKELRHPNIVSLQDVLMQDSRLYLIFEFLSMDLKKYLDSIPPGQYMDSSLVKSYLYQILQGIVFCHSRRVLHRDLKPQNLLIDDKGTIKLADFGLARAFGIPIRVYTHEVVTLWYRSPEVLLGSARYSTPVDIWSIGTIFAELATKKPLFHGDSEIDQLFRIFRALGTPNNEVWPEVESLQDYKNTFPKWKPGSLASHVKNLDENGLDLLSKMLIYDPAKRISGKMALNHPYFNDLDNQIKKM
Chain of Cyclin-dependent kinase 1/cyclin B1 (Homo sapiens) (P14635 whole entry, looked up): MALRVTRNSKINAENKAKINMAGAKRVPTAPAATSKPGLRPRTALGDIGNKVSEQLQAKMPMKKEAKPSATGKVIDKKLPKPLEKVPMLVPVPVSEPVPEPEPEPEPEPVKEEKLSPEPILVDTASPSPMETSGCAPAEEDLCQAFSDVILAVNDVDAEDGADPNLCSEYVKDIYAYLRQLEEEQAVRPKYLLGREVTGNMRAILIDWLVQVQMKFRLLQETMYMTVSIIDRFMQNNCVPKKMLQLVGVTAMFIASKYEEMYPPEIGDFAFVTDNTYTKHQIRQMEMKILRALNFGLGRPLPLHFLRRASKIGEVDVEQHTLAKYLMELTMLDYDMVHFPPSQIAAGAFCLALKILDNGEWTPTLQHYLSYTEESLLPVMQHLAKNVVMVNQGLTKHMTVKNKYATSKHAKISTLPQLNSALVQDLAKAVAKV

COc1cc2c(Oc3ccc(-c4nc5ccccc5s4)cc3)ncnc2cc1OCCCN1CCN(C)CC1
residual activity [1]: 105% | residual activity [2]: 98% | residual activity [3]: 93% | residual activity [4]: 117% | residual activity [5]: 112% | residual activity [6]: 99% | residual activity [7]: 111%

COc1cc2c(Oc3ccc(-c4nc5ccccc5s4)cc3)ncnc2cc1OCCCN1CCCC1
residual activity [1]: 112% | residual activity [2]: 107% | residual activity [3]: 90% | residual activity [4]: 94% | residual activity [5]: 102% | residual activity [6]: 94% | residual activity [7]: 96%

COc1cc2c(Oc3ccc(-c4nc5ccccc5s4)cc3F)ncnc2cc1OCCCN1CCN(C)CC1
residual activity [1]: 125% | residual activity [2]: 64% | residual activity [3]: 92% | residual activity [4]: 116% | residual activity [5]: 117% | residual activity [6]: 106% | residual activity [7]: 100%
